Assay results published in ChEMBL document CHEMBL5346872 (Eur J Med Chem, 2023).
Activity calls are given as the source filed them. No cut-off for these calls is given here.

Columns and labels:
[1] = target: T1, beta-catenin-B-cell lymphoma 9 protein complex (Homo sapiens, UniProt P35222); test: Inhibition of beta-catenin (unknown origin) to BCL9-FAM (unknown origin) protein-protein interaction preincubated for 2 hrs followed by BCL9 addition and measured after 2 hrs by fluorescence polarization assay; assay type: protein-complex assay
T1 sequence (P35222 whole entry): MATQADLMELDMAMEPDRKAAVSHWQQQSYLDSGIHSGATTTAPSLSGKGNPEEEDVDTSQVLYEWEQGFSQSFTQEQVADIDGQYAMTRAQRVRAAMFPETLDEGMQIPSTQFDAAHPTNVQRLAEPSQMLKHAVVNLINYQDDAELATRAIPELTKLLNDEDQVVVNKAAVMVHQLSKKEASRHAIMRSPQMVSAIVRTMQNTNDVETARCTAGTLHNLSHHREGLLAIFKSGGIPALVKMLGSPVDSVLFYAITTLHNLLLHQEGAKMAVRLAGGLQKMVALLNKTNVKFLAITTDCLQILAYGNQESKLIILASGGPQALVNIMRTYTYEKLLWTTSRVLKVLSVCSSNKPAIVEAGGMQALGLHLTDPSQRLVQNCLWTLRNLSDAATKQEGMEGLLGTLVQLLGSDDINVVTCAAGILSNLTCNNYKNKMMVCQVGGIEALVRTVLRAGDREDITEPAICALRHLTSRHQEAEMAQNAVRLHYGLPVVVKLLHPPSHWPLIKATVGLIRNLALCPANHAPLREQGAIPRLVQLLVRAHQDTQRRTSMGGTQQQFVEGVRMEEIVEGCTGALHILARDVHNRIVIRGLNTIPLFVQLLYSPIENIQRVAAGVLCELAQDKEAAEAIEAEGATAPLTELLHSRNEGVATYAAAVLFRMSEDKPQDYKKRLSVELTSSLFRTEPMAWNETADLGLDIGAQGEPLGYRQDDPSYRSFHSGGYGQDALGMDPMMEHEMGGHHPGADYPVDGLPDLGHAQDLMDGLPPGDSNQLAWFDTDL
T1 sequence (O00512 whole entry): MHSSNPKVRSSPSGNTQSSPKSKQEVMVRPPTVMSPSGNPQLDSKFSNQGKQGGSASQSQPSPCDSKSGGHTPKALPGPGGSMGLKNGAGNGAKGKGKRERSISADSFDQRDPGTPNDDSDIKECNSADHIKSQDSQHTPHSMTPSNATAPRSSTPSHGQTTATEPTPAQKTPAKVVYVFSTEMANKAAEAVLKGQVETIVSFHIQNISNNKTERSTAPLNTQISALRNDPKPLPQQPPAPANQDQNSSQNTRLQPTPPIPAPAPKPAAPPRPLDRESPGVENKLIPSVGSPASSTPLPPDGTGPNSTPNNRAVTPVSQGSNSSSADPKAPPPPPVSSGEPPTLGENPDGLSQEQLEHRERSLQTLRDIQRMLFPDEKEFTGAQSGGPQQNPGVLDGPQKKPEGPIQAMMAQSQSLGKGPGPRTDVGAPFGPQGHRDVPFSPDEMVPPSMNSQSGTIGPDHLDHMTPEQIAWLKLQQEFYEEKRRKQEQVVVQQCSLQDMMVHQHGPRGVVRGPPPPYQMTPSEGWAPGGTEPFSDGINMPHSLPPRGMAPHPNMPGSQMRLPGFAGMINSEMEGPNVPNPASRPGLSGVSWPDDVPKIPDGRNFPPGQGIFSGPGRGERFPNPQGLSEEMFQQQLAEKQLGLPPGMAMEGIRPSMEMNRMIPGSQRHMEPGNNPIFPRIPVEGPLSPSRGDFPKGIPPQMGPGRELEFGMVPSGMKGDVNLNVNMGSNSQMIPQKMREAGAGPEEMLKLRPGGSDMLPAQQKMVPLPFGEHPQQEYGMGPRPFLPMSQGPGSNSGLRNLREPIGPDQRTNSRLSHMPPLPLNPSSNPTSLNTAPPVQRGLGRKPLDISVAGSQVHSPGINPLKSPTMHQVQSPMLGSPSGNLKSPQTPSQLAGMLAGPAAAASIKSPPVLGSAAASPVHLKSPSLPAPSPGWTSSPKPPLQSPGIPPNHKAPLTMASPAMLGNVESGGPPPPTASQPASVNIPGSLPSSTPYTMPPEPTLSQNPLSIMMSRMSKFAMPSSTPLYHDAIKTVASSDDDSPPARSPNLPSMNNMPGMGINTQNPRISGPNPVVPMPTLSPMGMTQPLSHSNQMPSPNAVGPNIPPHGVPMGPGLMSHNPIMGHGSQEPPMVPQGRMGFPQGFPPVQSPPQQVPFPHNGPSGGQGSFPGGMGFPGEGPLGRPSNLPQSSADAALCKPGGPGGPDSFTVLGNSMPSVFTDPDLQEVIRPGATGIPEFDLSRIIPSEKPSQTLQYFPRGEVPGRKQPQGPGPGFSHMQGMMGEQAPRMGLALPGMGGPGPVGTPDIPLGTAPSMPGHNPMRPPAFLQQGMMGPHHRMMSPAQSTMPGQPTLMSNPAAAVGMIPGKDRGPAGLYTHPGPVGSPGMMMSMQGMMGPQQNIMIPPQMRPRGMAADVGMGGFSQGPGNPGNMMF

[2] = Inhibition of Wnt/beta-catenin signaling in human HCT-116 cells assessed as reduction in Axin2 expression incubated for 24 hrs by qPCR analysis; settings: HCT-116, 24 h
HCT-116 = test: Antiproliferative activity against human HCT-116 cells assessed as reduction in cell viability incubated for 48 hrs by CCK8 assay; settings: HCT-116, 48 h
[3] = Inhibition of Wnt/beta-catenin signaling in BCL9 knockdown mouse CT26 cells assessed as reduction in Axin2 expression incubated for 24 hrs by qPCR analysis; settings: CT26, 24 h
CT26 [4] = test: Inhibition of Wnt/beta-catenin signaling in mouse CT26 cells assessed as reduction in Axin2 expression incubated for 24 hrs by Western blot analysis; assay type: cell-based; settings: dose 5-20 µM
CT26 [5] = test: Antitumor activity against mouse CT26 cells implanted in BALB/c mouse assessed as tumor growth inhibition at 30 mg/kg, ip administered once daily and measured on day 14; assay type: functional; settings: CT26, 336 h, time 14 day, read-out: TGI
[6] = Inhibition of Wnt/beta-catenin signaling in mouse CT26 cells assessed as reduction in Axin2 expression incubated for 24 hrs by qPCR analysis; settings: CT26, 24 h
CT26 [7] = test: Antiproliferative activity against mouse CT26 cells assessed as reduction in cell viability incubated for 48 hrs by CCK-8 assay; settings: CT26, 48 h
[8] = Toxicity in BALB/c mouse assessed as body weight loss at 30 mg/kg, ip administered once daily measured after 14 days; assay type: organism-based; settings: in vivo, 336 h, time 14 day
[9] = Inhibition of Wnt/beta-catenin signaling in human HCT116 cells incubated for 24 hrs by TCF/LEF reporter assay; settings: HCT-116, 24 h
RKO = test: Antiproliferative activity against human RKO cells assessed as reduction in cell viability incubated for 48 hrs by CCK8 assay
CT26 [10] = settings: Mus musculus, dose 30.0 mg/kg, route ip, time 14.0 day
Description: In vivo inhibition of Wnt/beta-catenin signaling in mouse CT26 cells implanted in BALB/c mouse assessed as reduction in Axin2 expression at 30 mg/kg, ip administered once daily and measured on day 14 by qPCR analysis

[11] = Induction of immune microenvironment in BALB/c mouse spleen assessed as increase in granzyme B at 5 to 10 uM after 24 hrs by flow cytometry analysis (reference value: 16.7 %); assay type: functional; settings: dose 5-10 µM
[12] = Drug concentration in human HCT-116 cells assessed as retention ratio at 2 uM incubated for 24 hrs by HPLC-MS analysis; assay type: ADME, cell-based; settings: hct-116, 24 h
[13] = Drug concentration in human HCT-116 cells at 2 uM incubated for 24 hrs by HPLC-MS analysis; assay type: ADME, cell-based; settings: hct-116, 24 h
CT26 [14] = test: Induction of apoptosis in mouse CT26 cells assessed as late apoptosis at 5 to 40 uM incubated for 24 hrs by annexin V and PI staining based flow cytometry analysis; assay type: functional, cell-based; settings: dose 5-40 µM
HEK293 = test: Antiproliferative activity against HEK293 cells assessed as reduction in cell viability incubated for 48 hrs by CCK8 assay; settings: Homo sapiens, HEK293, 48 h
CT26 [15] = test: Induction of apoptosis in mouse CT26 cells assessed as early apoptosis at 5 to 40 uM incubated for 24 hrs by annexin V and PI staining based flow cytometry analysis; assay type: functional, cell-based; settings: dose 5-40 µM
CT26 [16] = test: Antitumor activity against mouse CT26 cells implanted in BALB/c mouse assessed as increase in granzyme B expression at 30 mg/kg, ip administered once daily and measured on day 14 by qPCR analysis; assay type: functional, organism-based; settings: time 14.0 day
CT26 [17] = test: Antitumor activity against mouse CT26 cells implanted in BALB/c mouse assessed as downregulation of interleukin-10 gene expression at 30 mg/kg, ip administered once daily and measured on day 14 by qPCR analysis; assay type: functional, organism-based; settings: time 14.0 day
CT26 [18] = test: Antitumor activity against mouse CT26 cells implanted in BALB/c mouse assessed as induction of immune microenvironment at 30 mg/kg, ip administered once daily and measured on day 14 by qPCR analysis; assay type: functional, organism-based; settings: time 14.0 day

| SMILES | IC50 [1] | IC50 [6] | IC50 (CT26 [7]) | other results |
| --- | --- | --- | --- | --- |
| O=c1c(O)c(-c2ccc(O)c(O)c2)oc2cc(OCCCN3CCOCC3)cc(O)c12 | 12.3 µM |  |  |  |
| O=c1c(O)c(-c2ccc(O)c(O)c2)oc2c(-c3ccccc3)c(O)cc(O)c12 | 18.7 µM |  |  |  |
| O=c1c(O)c(-c2ccc(O)c(O)c2)oc2cc(O)cc(O)c12 [QUERCETIN] |  | 7.7 µM | 14.4 µM | IC50 [2]: 3.57 µM; IC50 (HCT-116): 10.4 µM; IC50 [3]: 23.5 µM; inhibition (CT26 [4]): Dose-Dependent Effect; inhibition in vivo at 30 mg/kg (CT26 [5]): 69.4%; Activity [8]: Non-Toxic; IC50 [9]: 4.71 µM |
| CN1CCN(CCCOc2cc(O)c3c(=O)c(O)c(-c4ccc(O)c(O)c4)oc3c2)CC1 | 9.13 µM |  |  |  |
| O=C1[C@H](Cc2ccc(O)cc2)N2C(=O)CCN(C(=O)NCc3ccccc3)[C@H]2CN1Cc1cccc2ccccc12 |  |  |  | inhibition in vivo at 30 mg/kg (CT26 [5]): 40.8%; Activity [8]: Non-Toxic |
| O=c1c(O)c(-c2ccc(O)c(OCCCN3CCCC3)c2)oc2cc(O)cc(O)c12 | 25.7 µM | 19.2 µM | 6.26 µM |  |
| O=c1c(O)c(-c2ccc(O)c(OCCN3CCCCC3)c2)oc2cc(O)cc(O)c12 | 31.1 µM | 23.1 µM | 8.67 µM |  |
| COc1cc(OCCCN2CCOCC2)c2c(=O)c(O)c(-c3ccc(O)c(O)c3)oc2c1 | 6.09 µM |  |  |  |
| O=c1c(O)c(-c2ccc(O)c(OCCN3CCCCCC3)c2)oc2cc(O)cc(O)c12 | 37.4 µM | 13.9 µM | 7.04 µM |  |
| O=c1c(O)c(-c2ccc(O)c(OCCCN3CCOCC3)c2)oc2cc(O)cc(O)c12 |  | 6.29 µM | 7.85 µM |  |
| O=c1c(O)c(-c2ccc(O)c(OCCCN3CCCCC3)c2)oc2cc(O)cc(O)c12 | 18.6 µM | 29.7 µM | 7.18 µM |  |
| CCN(CC)CCCOc1cc(-c2oc3cc(O)cc(O)c3c(=O)c2O)ccc1O | 11.7 µM | 11.2 µM | 23.7 µM |  |
| CN1CCN(CCCOc2cc(-c3oc4cc(O)cc(O)c4c(=O)c3O)ccc2O)CC1 |  | 2.81 µM | 3.21 µM | IC50 (RKO): 26.7 µM; IC50 [2]: 9.71 µM; IC50 (HCT-116): 4.4 µM; inhibition (CT26 [10]): Active; Activity [11]: 31.1%; IC50 [3]: 27.9 µM; Drug uptake [12]: 31.31%; inhibition (CT26 [4]): Dose-Dependent Effect; inhibition in vivo at 30 mg/kg (CT26 [5]): 81.4%; Drug uptake [13]: 0.63 µM; Activity (CT26 [14]): Active; IC50 (HEK293): 17.7 µM; Activity (CT26 [15]): Active; Activity (CT26 [16]): Active; Activity (CT26 [17]): Active; Activity (CT26 [18]): Active; Activity [8]: Non-Toxic; IC50 [9]: 15.2 µM |
| COc1cc(OCCCN2CCN(C)CC2)c2c(=O)c(O)c(-c3ccc(O)c(O)c3)oc2c1 | 9.69 µM |  |  |  |
| CN1CCN(CCOc2cc(-c3oc4cc(O)cc(O)c4c(=O)c3O)ccc2O)CC1 | 78.9 µM | 17.8 µM | 11.7 µM |  |
| CCN(CC)CCOc1cc(-c2oc3cc(O)cc(O)c3c(=O)c2O)ccc1O | 27.9 µM | 40.7 µM | 11.8 µM |  |
| O=c1c(O)c(-c2ccc(O)c(OCCCN3CCCCCC3)c2)oc2cc(O)cc(O)c12 | 20.1 µM | 34.7 µM | 35 µM |  |
| O=c1c(O)c(-c2ccc(O)c(O)c2)oc2c(-c3ccc(O)cc3)c(O)cc(O)c12 | 4.46 µM |  |  |  |
| O=c1c(O)c(-c2ccc(O)c(OCCN3CCCC3)c2)oc2cc(O)cc(O)c12 | 56.8 µM | 17.6 µM | 8.2 µM |  |
| O=c1c(O)c(-c2ccc(O)c(OCCN3CCOCC3)c2)oc2cc(O)cc(O)c12 | 30.2 µM | 38.4 µM | 9.96 µM |  |
